Results from PubChem BioAssay AID1259407 (Chemical Carcinogenesis Research Information System (CCRIS), 2018).
The source made the active and inactive calls. No rule for the calls is given here.

System: CCRIS mutagenicity, Ames/micronucleus/aberration tests
Assay: CCRIS mutagenicity studies
[1] = Test System: AMES SALMONELLA TYPHIMURIUM, Strain/Indicator: TA98, Metabolic Activation: NONE, Method: STANDARD PLATE
[2] = Test System: AMES SALMONELLA TYPHIMURIUM, Strain/Indicator: TA100, Metabolic Activation: NONE, Method: STANDARD PLATE

SMILES: FC(F)(F)I
- mutagenic call (Test System: AMES SALMONELLA TYPHIMURIUM, Strain/Indicator: TA98, Metabolic Activation: NONE, Method: DESICCATOR): active; positive
- mutagenic call (Test System: AMES SALMONELLA TYPHIMURIUM, Strain/Indicator: TA98, Metabolic Activation: RAT, LIVER, S-9, AROCLOR 1254, Method: DESICCATOR): active; positive
- mutagenic call (Test System: AMES SALMONELLA TYPHIMURIUM, Strain/Indicator: TA100, Metabolic Activation: NONE, Method: DESICCATOR): active; positive
- mutagenic call (Test System: AMES SALMONELLA TYPHIMURIUM, Strain/Indicator: TA100, Metabolic Activation: RAT, LIVER, S-9, AROCLOR 1254, Method: DESICCATOR): active; positive
- mutagenic call (Test System: AMES SALMONELLA TYPHIMURIUM, Strain/Indicator: TA1535, Metabolic Activation: NONE, Method: DESICCATOR): active; positive
- mutagenic call (Test System: AMES SALMONELLA TYPHIMURIUM, Strain/Indicator: TA1535, Metabolic Activation: RAT, LIVER, S-9, AROCLOR 1254, Method: DESICCATOR): active; positive
- mutagenic call (Test System: AMES SALMONELLA TYPHIMURIUM, Strain/Indicator: TA1537, Metabolic Activation: NONE, Method: DESICCATOR): active; positive
- mutagenic call (Test System: AMES SALMONELLA TYPHIMURIUM, Strain/Indicator: TA1537, Metabolic Activation: RAT, LIVER, S-9, AROCLOR 1254, Method: DESICCATOR): active; positive
- mutagenic call (Test System: AMES SALMONELLA TYPHIMURIUM, Strain/Indicator: TA1538, Metabolic Activation: NONE, Method: DESICCATOR): inactive; negative
- mutagenic call (Test System: AMES SALMONELLA TYPHIMURIUM, Strain/Indicator: TA1538, Metabolic Activation: RAT, LIVER, S-9, AROCLOR 1254, Method: DESICCATOR): inactive; negative
- mutagenic call (Test System: MOUSE LYMPHOMA, Strain/Indicator: L5178Y (TK+/TK-), Metabolic Activation: NONE, Method: SUSPENSION/PLATE): inactive; negative
- mutagenic call (Test System: MOUSE LYMPHOMA, Strain/Indicator: L5178Y (TK+/TK-), Metabolic Activation: RAT, LIVER, S-9, AROCLOR 1254, Method: SUSPENSION/PLATE): inactive; negative

SMILES: CC(C)(CO)[C@@H](O)C(=O)NCCCO
- mutagenic call [1]: inactive; negative
- mutagenic call (Test System: AMES SALMONELLA TYPHIMURIUM, Strain/Indicator: TA98, Metabolic Activation: RAT, LIVER, S-9, AROCLOR 1254, Method: STANDARD PLATE): inactive; negative
- mutagenic call [2]: inactive; negative
- mutagenic call (Test System: AMES SALMONELLA TYPHIMURIUM, Strain/Indicator: TA100, Metabolic Activation: RAT, LIVER, S-9, AROCLOR 1254, Method: STANDARD PLATE): inactive; negative
- mutagenic call (Test System: AMES SALMONELLA TYPHIMURIUM, Strain/Indicator: TA1535, Metabolic Activation: NONE, Method: STANDARD PLATE): inactive; negative
- mutagenic call (Test System: AMES SALMONELLA TYPHIMURIUM, Strain/Indicator: TA1535, Metabolic Activation: RAT, LIVER, S-9, AROCLOR 1254, Method: STANDARD PLATE): inactive; negative
- mutagenic call (Test System: AMES SALMONELLA TYPHIMURIUM, Strain/Indicator: TA1537, Metabolic Activation: NONE, Method: STANDARD PLATE): inactive; negative
- mutagenic call (Test System: AMES SALMONELLA TYPHIMURIUM, Strain/Indicator: TA1537, Metabolic Activation: RAT, LIVER, S-9, AROCLOR 1254, Method: STANDARD PLATE): inactive; negative
- mutagenic call (Test System: AMES SALMONELLA TYPHIMURIUM, Strain/Indicator: TA1538, Metabolic Activation: NONE, Method: STANDARD PLATE): inactive; negative
- mutagenic call (Test System: AMES SALMONELLA TYPHIMURIUM, Strain/Indicator: TA1538, Metabolic Activation: RAT, LIVER, S-9, AROCLOR 1254, Method: STANDARD PLATE): inactive; negative
- mutagenic call (Test System: E. COLI, Strain/Indicator: WP2, Metabolic Activation: NONE, Method: STANDARD PLATE): inactive; negative
- mutagenic call (Test System: E. COLI, Strain/Indicator: WP2, Metabolic Activation: RAT, LIVER, S-9, AROCLOR 1254, Method: STANDARD PLATE): inactive; negative

SMILES: CC1(C)C(=O)N(Cl)C(=O)N1Cl
- mutagenic call (End Point: IN VITRO CHROMOSOMAL ABERRATIONS, Test System: CHINESE HAMSTER OVARY CELLS, Metabolic Activation: NONE): inactive; negative
- mutagenic call (End Point: IN VITRO CHROMOSOMAL ABERRATIONS, Test System: CHINESE HAMSTER OVARY CELLS, Metabolic Activation: RAT, LIVER, S-9, AROCLOR 1254): inactive; negative
- mutagenic call (Test System: AMES SALMONELLA TYPHIMURIUM, Strain/Indicator: TA98, Metabolic Activation: HAMSTER, LIVER, S-9, AROCLOR 1254, Method: PREINCUBATION): inactive; negative
- mutagenic call (Test System: AMES SALMONELLA TYPHIMURIUM, Strain/Indicator: TA98, Metabolic Activation: NONE, Method: PREINCUBATION): inactive; negative
- mutagenic call (Test System: AMES SALMONELLA TYPHIMURIUM, Strain/Indicator: TA98, Metabolic Activation: RAT, LIVER, S-9, AROCLOR 1254, Method: PREINCUBATION): inactive; negative
- mutagenic call (Test System: AMES SALMONELLA TYPHIMURIUM, Strain/Indicator: TA100, Metabolic Activation: HAMSTER, LIVER, S-9, AROCLOR 1254, Method: PREINCUBATION): inactive; negative
- mutagenic call (Test System: AMES SALMONELLA TYPHIMURIUM, Strain/Indicator: TA100, Metabolic Activation: NONE, Method: PREINCUBATION): inactive; negative
- mutagenic call (Test System: AMES SALMONELLA TYPHIMURIUM, Strain/Indicator: TA100, Metabolic Activation: RAT, LIVER, S-9, AROCLOR 1254, Method: PREINCUBATION): inactive; negative
- mutagenic call (Test System: AMES SALMONELLA TYPHIMURIUM, Strain/Indicator: TA1535, Metabolic Activation: HAMSTER, LIVER, S-9, AROCLOR 1254, Method: PREINCUBATION): inactive; negative
- mutagenic call (Test System: AMES SALMONELLA TYPHIMURIUM, Strain/Indicator: TA1535, Metabolic Activation: NONE, Method: PREINCUBATION): inactive; negative
- mutagenic call (Test System: AMES SALMONELLA TYPHIMURIUM, Strain/Indicator: TA1535, Metabolic Activation: RAT, LIVER, S-9, AROCLOR 1254, Method: PREINCUBATION): inactive; negative
- mutagenic call (Test System: AMES SALMONELLA TYPHIMURIUM, Strain/Indicator: TA1537, Metabolic Activation: HAMSTER, LIVER, S-9, AROCLOR 1254, Method: PREINCUBATION): inactive; negative
- mutagenic call (Test System: AMES SALMONELLA TYPHIMURIUM, Strain/Indicator: TA1537, Metabolic Activation: NONE, Method: PREINCUBATION): inactive; negative
- mutagenic call (Test System: AMES SALMONELLA TYPHIMURIUM, Strain/Indicator: TA1537, Metabolic Activation: RAT, LIVER, S-9, AROCLOR 1254, Method: PREINCUBATION): inactive; negative

SMILES: CNC(=O)/C=C(\C)OP(=O)(OC)OC
- mutagenic call (End Point: In vitro chromosomal aberrations, Test System: Human lymphocytes, Metabolic Activation: None): active; positive (structural changes and ploidy)
- mutagenic call (Test System: AMES SALMONELLA TYPHIMURIUM, Strain/Indicator: TA97A, Metabolic Activation: NONE, Method: STANDARD PLATE): inactive; negative
- mutagenic call (Test System: AMES SALMONELLA TYPHIMURIUM, Strain/Indicator: TA97A, Metabolic Activation: PLANT, HOMOGENATE, S-14, Method: STANDARD PLATE): inactive; negative
- mutagenic call (Test System: AMES SALMONELLA TYPHIMURIUM, Strain/Indicator: TA97A, Metabolic Activation: S-9, Method: STANDARD PLATE): inactive; negative
- mutagenic call [1]: inactive; negative
- mutagenic call (Test System: AMES SALMONELLA TYPHIMURIUM, Strain/Indicator: TA98, Metabolic Activation: PLANT, HOMOGENATE, S-14, Method: STANDARD PLATE): inactive; negative
- mutagenic call (Test System: AMES SALMONELLA TYPHIMURIUM, Strain/Indicator: TA98, Metabolic Activation: S-9, Method: STANDARD PLATE): inactive; negative
- mutagenic call [2]: inactive; negative
- mutagenic call (Test System: AMES SALMONELLA TYPHIMURIUM, Strain/Indicator: TA100, Metabolic Activation: PLANT, HOMOGENATE, S-14, Method: STANDARD PLATE): inactive; negative
- mutagenic call (Test System: AMES SALMONELLA TYPHIMURIUM, Strain/Indicator: TA100, Metabolic Activation: S-9, Method: STANDARD PLATE): inactive; negative
- mutagenic call (Test System: AMES SALMONELLA TYPHIMURIUM, Strain/Indicator: TA1535, Metabolic Activation: PLANT, HOMOGENATE, S-14, Method: STANDARD PLATE): inactive; negative
- mutagenic call (Test System: AMES SALMONELLA TYPHIMURIUM, Strain/Indicator: TA1535, Metabolic Activation: S-9, Method: STANDARD PLATE): inactive; negative
- mutagenic call (Test System: UDS HUMAN FIBROBLASTS, Strain/Indicator: THY INCORP (NON-S-PHASE), Metabolic Activation: NONE, Method: LIQUID SCINTILLATION COUNTING): active; positive
